Measured values taken from paper doi:10.1101/2021.03.15.435551, “Discovery of SARS-CoV-2 papain-like protease inhibitors through a combination of high-throughput screening and FlipGFP-based reporter assay” (bioRxiv, 2021).

Columns and labels:
[1] = target: T1, SARS-CoV-2 PL^pro (PL^pro; PL^pro-His) (Severe acute respiratory syndrome coronavirus 2, UniProt P0DTD1); assay: FRET peptide cleavage assay; assay type: biochemical; conditions: Dabcyl-FTLRGG/APTKV-Edans substrate, 200 nM PLpro
T1 construct: gene rep

SARS-CoV-2 M^pro = target: T2, SARS-CoV-2 M^pro (Severe acute respiratory syndrome coronavirus 2, UniProt P0DTD1); assay: Mpro FRET peptide assay; assay type: biochemical; conditions: pH 6.5; Dabcyl-KTSAVLQ/SGFRKME(Edans) substrate
T2 construct: gene rep

[2] = target: T3, SARS-CoV-2 PL^pro (pcDNA3.1 SARS2 PL^pro, FlipGFP assay) (Severe acute respiratory syndrome coronavirus 2, UniProt P0DTD1); assay: FlipGFP-PLpro reporter assay; assay type: cell-based; conditions: GFP/mCherry ratio, 48 h
T3 construct: gene rep

Row | Compound | IC50 [1] [nM] | inhibition at up to 200 μM (SARS-CoV-2 M^pro) [µM] | EC50 [2] [nM]
1 | CC(c1ccccc1Cl)N(C)Cc1cc(O)ccc1Cl (centres unmarked) [Jun9-13-7] | 7290 ± 1030 | > 200 | 
2 | C[C@H](c1cccc2ccccc12)N(C)Cc1cccc2[nH]ccc12 [Jun9-75-4] | 620 |  | 
3 | CC(c1cc(F)ccc1F)N(C)Cc1cc(O)ccc1Cl (centres unmarked) [Jun9-29-5] | > 20000 |  | 
4 | Cc1ccc(N)cc1CN(C)[C@H](C)c1cccc2ccccc12 [Jun9-53-2] | 890 |  | 
5 | Jun9-75-5 | 560 |  | > 60000
6 | C[C@H](c1ccc(Cl)cc1)N(C)Cc1cc(O)ccc1Cl [Jun9-13-4] | > 20000 |  | 
